Results published in patent EP0041795A2, “Injectable composition of rapamycin” (AYERST, MCKENNA AND HARRISON INC., priority 1980, dated 1981).

Assay: Solubility of rapamycin
Type: physicochemical

solubility in aqueous solutions (aqueous solutions): virtually insoluble
solubility in surfactants (most surfactants, including the nonionic surfactants): insoluble
solubility in polyoxyethylated glycerin hydroxy fatty acids (rapamycin per se, polyoxyethylated glycerin hydroxy fatty acids): does not readily go into solution
SMILES: CO[C@H]1C[C@@H]2CC[C@@H](C)[C@@](O)(O2)C(=O)C(=O)N2CCCC[C@H]2C(=O)O[C@H]([C@H](C)C[C@@H]2CC[C@@H](O)[C@H](OC)C2)CC(=O)[C@H](C)/C=C(\C)[C@@H](O)[C@@H](OC)C(=O)[C@H](C)C[C@H](C)/C=C/C=C/C=C/1C [Rapamycin]
